Assay results reported in EP0655506B1 (priority 1994, dated 1995).

Columns and labels:
Test in all cases: SDS activity gel analysis, incorporation of ddNMP relative to dNMP (Example 2)
Type in all cases: biochemical
[1] = molecular target: T1, E. coli DNA polymerase I mutant Pol I C-K1, R D N A K T F I Y G F L Y G (Escherichia coli, UniProt P00582, A759T/F762Y/I760F/I765L/L764F/N761I/R755D/S756N); conditions: renatured enzyme in gel; 1.5 µM 4dNTPs with or without 30 µM ddTTP; 37 °C 4 hr
T1 construct: the large fragment of E. coli DNA polymerase I (Klenow fragment); made in house; crude lysate, renatured in gel
Procedure: (§1) Mutant DNA polymerases are screened for their ability to incorporate dideoxynucleotides by SDS activity gel analysis. The procedure is a modification of that described by Spanos and Hübscher 91 Methods in Enzymology 263, 1983 and Karawya et al. 135 Analytical Biochemistry 318, 1983. Briefly, 10 ml of cells are induced for 4 to 6 hours and then pelleted. The cell pellet is resuspended in 0.3 ml 25 mM Tris HCl, pH 7.0, 5 mM EDTA. 20 µl of the resuspended cells are mixed with 40 µl of a solution of 1% SDS (sodium dodecyl sulfate), 2% mercaptoethanol, 30 % glycerol, 0.04% bromphenol blue, and 100 mM TrisHCl, pH 6.8. The mixtures are incubated at 37 °C for 5 min, and then 20 µl aliquots are loaded in duplicate onto two SDS polyacrylamide gels. The SDS polyacrylamide gels consist of a resolving gel that contains 8% polyacrylamide, 0.27% bisacrylamide, 190 mM TrisHCl, pH 8.8, 0.05% SDS, and 25 µg/ml denatured salmon sperm DNA, and a stacking gel that consists of 5% polyacrylamide, 0.17% bisacrylamide, 150 mM TrisHCl, pH 6.8, and 0.1% SDS. The two gels are electrophoresed at 100 V for 13 hr at a constant temperature of 13 °C in an electrophoresis buffer consisting of 190 mM TrisHCl and pH 8.8, 0.05% SDS.
(§2) After electrophoresis, the gels are washed over 8 hr in 4 changes of 500 ml each of Renaturation Buffer (50 mM Tris.HCl, pH 7.5, 5 mM magnesium acetate, 1 mM dithiothreitol, 40 mM KCI, 400 µg/ml bovine serum albumin, 16% glycerol and 0.95 mM EDTA) at 4 °C.
(§3) The renatured proteins are assayed for DNA polymerase activity by incubating each of the two gels in 6 ml of Renaturation Buffer, 1.5 µM 4dNTPs, 4 µl of [a-^32P]dATP (800 Ci/mmol, 10 mCi/ml), and 80 µg of purified thioredoxin. One of the mixtures also contains 30 µM ddTTP (a 20-fold molar excess over dTTP). The mixtures are incubated for 4 hr at 37 °C (70 °C for 2 hr for thermophilic DNA polymerases).
(§4) After incubation the gels are washed for 8 hr against four changes of 5% trichloracetic acid and 1% sodium pyrophosphate. The gels are then dried and autoradiographed.
(§5) To determine whether a mutant DNA polymerase is discriminating more or less against ddTTP, the intensities of the radioactive bands are compared on the two gels that were incubated in the presence and absence of ddTTP, and the ratio of the signal in the two bands for the unmodified DNA polymerase is compared with the ratio of the signal in the two bands for each of the mutants.

[2] = molecular target: T2, E. coli DNA polymerase I mutant Pol I C-K2, R R S A K T F I Y G L I Y G (Escherichia coli, UniProt P00582, A759T/F762Y/I760F/N761I); conditions: renatured enzyme in gel; 1.5 µM 4dNTPs with or without 30 µM ddTTP; 37 °C 4 hr
T2 construct: the large fragment of E. coli DNA polymerase I (Klenow fragment); made in house; crude lysate, renatured in gel
Procedure: as §1, §2, §3, §4, §5

[3] = molecular target: T3, E. coli DNA polymerase I mutant Pol I C-K3, R R S A K T F N F G L I Y G (Escherichia coli, UniProt P00582, A759T/I760F); conditions: renatured enzyme in gel; 1.5 µM 4dNTPs with or without 30 µM ddTTP; 37 °C 4 hr
T3 construct: the large fragment of E. coli DNA polymerase I (Klenow fragment); made in house; crude lysate, renatured in gel
Procedure: as §1, §2, §3, §4, §5

[4] = molecular target: T4, E. coli DNA polymerase I mutant Pol I C-K4, R R S A K A I I Y G L I Y G (Escherichia coli, UniProt P00582, F762Y/N761I); conditions: renatured enzyme in gel; 1.5 µM 4dNTPs with or without 30 µM ddTTP; 37 °C 4 hr
T4 construct: the large fragment of E. coli DNA polymerase I (Klenow fragment); made in house; crude lysate, renatured in gel
Procedure: as §1, §2, §3, §4, §5

[5] = molecular target: T5, E. coli DNA polymerase I mutant Pol I C-K5, R R S A K A I I F G L I Y G (Escherichia coli, UniProt P00582, N761I); conditions: renatured enzyme in gel; 1.5 µM 4dNTPs with or without 30 µM ddTTP; 37 °C 4 hr
T5 construct: the large fragment of E. coli DNA polymerase I (Klenow fragment); made in house; crude lysate, renatured in gel
Procedure: as §1, §2, §3, §4, §5

[6] = molecular target: T6, E. coli DNA polymerase I mutant Pol I C-K6 (F762Y), R R S A K A I N Y G L I Y G (Escherichia coli, UniProt P00582, F762Y)
T6 construct: the large fragment of E. coli DNA polymerase I (Klenow fragment); made in house; crude lysate, renatured in gel
Procedure: as §1, §2, §3, §4, §5

[7] = molecular target: T7, E. coli DNA polymerase I, wild type (Pol I WT), R R S A K A I N F G L I Y G (Escherichia coli, UniProt P00582)
T7 construct: the large fragment of E. coli DNA polymerase I (Klenow fragment); made in house; crude lysate, renatured in gel
Procedure: as §1, §2, §3, §4, §5

[8] = molecular target: T8, Taq DNA polymerase mutant Taq C-Q2, R R A A K T F I Y G F L Y G (Thermus aquaticus, UniProt P19821, F667Y/I665F/N666I/V669F); conditions: renatured enzyme in gel; 1.5 µM 4dNTPs with or without 30 µM ddTTP; 70 °C 2 hr
T8 construct: the large fragment of Taq DNA polymerase (KlenTaq or _Taq DNA polymerase); made in house; crude lysate, renatured in gel
Procedure: as §1, §2, §3, §4, §5

[9] = molecular target: T9, Taq DNA polymerase mutant Taq C-Q4, R R A A K T I I F G V L Y G (Thermus aquaticus, UniProt P19821, N666I); conditions: renatured enzyme in gel; 1.5 µM 4dNTPs with or without 30 µM ddTTP; 70 °C 2 hr
T9 construct: the large fragment of Taq DNA polymerase (KlenTaq or _Taq DNA polymerase); made in house; crude lysate, renatured in gel
Procedure: as §1, §2, §3, §4, §5

[10] = molecular target: T10, Taq DNA polymerase, wild type (Taq WT), R R A A K T I N F G V L Y G (Thermus aquaticus, UniProt P19821); conditions: renatured enzyme in gel; 1.5 µM 4dNTPs with or without 30 µM ddTTP; 70 °C 2 hr
T10 construct: the large fragment of Taq DNA polymerase (KlenTaq or _Taq DNA polymerase); made in house; crude lysate, renatured in gel
Procedure: as §1, §2, §3, §4, §5

[11] = renatured enzyme in gel, 1.5 µM 4dNTPs with or without 30 µM ddTTP, 37 °C 4 hr

T7 sequence (P00582 324-928): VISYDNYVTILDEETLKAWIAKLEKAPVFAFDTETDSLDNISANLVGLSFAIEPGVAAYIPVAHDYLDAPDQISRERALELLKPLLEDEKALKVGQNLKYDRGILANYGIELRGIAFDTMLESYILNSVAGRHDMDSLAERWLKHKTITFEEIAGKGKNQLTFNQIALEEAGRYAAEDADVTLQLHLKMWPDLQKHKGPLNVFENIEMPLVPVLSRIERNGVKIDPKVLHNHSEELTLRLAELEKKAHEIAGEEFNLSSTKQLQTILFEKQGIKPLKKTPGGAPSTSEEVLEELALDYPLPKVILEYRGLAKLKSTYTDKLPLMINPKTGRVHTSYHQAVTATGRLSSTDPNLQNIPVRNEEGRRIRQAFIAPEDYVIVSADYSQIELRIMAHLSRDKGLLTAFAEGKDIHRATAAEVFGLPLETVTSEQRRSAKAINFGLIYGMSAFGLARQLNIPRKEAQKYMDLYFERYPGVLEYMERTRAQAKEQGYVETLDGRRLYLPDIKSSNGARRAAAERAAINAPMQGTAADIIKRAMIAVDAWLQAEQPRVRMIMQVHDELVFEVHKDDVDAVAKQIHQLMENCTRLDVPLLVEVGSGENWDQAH
T6 sequence (P00582 324-928 F762Y): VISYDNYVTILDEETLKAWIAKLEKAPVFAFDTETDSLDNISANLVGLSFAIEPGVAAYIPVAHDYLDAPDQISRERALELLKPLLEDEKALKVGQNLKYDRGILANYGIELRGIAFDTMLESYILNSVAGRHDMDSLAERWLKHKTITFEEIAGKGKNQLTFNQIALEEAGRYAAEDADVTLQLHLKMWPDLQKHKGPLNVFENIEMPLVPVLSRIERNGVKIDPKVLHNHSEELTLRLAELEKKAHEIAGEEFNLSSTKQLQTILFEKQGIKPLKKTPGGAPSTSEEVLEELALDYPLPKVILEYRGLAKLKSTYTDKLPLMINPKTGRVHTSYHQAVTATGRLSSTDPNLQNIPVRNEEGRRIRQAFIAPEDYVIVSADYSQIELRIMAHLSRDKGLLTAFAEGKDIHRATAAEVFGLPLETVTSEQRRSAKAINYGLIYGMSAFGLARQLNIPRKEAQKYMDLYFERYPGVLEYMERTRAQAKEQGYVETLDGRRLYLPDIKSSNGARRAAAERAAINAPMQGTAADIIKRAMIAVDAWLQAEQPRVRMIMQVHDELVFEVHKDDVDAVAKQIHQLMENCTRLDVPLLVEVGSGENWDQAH
T3 sequence (P00582 324-928 A759T/I760F): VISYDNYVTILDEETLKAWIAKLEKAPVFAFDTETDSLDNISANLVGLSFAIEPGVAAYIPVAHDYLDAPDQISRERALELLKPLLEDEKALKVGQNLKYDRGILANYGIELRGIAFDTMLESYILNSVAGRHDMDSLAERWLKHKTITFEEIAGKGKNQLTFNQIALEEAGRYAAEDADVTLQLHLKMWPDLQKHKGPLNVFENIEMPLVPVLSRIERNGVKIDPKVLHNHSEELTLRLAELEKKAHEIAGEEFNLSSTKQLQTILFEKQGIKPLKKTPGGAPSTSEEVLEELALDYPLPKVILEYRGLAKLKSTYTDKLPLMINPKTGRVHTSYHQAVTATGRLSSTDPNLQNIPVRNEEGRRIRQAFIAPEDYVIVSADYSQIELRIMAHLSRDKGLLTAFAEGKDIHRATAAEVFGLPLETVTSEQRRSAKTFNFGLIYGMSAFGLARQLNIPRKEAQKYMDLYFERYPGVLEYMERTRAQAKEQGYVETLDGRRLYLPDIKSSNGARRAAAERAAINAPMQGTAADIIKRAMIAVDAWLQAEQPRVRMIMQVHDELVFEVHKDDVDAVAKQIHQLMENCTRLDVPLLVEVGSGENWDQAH
T1 sequence (P00582 324-928 R755D/S756N/A759T/I760F/N761I/F762Y/L764F/I765L): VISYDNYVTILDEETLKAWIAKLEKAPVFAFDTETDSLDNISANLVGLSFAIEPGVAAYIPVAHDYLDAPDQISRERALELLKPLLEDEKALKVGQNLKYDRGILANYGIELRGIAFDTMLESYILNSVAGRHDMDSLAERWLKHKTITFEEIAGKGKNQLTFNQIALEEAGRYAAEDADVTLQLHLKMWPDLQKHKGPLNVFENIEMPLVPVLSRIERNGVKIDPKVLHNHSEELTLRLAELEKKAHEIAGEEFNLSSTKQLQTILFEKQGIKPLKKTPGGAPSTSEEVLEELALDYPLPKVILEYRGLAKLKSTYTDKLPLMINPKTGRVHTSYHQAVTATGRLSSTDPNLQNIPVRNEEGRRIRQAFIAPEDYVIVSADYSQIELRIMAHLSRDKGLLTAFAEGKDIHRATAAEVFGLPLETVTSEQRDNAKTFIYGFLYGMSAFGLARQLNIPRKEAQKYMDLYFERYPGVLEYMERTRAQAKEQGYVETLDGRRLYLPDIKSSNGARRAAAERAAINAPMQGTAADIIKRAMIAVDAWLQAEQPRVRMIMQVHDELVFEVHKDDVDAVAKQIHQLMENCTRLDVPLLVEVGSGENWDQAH
T5 sequence (P00582 324-928 N761I): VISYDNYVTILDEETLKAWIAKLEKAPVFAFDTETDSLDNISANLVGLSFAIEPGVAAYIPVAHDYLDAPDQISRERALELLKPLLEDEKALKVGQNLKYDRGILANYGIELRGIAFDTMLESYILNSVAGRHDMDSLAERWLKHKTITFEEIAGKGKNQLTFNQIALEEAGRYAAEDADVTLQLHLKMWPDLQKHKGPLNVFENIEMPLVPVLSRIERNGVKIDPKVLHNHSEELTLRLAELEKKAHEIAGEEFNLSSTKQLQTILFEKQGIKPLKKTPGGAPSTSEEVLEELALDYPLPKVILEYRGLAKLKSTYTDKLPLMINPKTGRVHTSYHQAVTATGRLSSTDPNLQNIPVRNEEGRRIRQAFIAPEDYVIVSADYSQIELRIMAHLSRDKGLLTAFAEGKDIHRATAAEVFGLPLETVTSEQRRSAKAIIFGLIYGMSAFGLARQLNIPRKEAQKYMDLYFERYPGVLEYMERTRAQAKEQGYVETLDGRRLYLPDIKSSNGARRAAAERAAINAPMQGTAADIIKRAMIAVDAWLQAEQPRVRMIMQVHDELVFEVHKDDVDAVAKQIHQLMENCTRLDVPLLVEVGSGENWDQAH
T2 sequence (P00582 324-928 A759T/I760F/N761I/F762Y): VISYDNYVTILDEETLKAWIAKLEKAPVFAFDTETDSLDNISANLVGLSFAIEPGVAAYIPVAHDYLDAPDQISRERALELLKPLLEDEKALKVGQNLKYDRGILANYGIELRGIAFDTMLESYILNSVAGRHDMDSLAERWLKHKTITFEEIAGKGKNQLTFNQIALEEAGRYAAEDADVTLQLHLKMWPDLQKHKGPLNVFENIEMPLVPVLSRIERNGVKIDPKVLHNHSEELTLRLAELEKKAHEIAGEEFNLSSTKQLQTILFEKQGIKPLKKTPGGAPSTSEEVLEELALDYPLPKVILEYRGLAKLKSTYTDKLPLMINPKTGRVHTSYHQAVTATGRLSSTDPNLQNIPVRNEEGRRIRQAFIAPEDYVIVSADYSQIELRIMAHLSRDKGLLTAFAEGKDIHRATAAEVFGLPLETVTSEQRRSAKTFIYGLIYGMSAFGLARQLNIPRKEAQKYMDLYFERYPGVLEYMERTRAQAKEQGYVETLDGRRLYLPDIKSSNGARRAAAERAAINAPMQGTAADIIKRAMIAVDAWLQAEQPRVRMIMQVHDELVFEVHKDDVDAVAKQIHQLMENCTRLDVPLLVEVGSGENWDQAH
T9 sequence (P19821 236-832 N666I): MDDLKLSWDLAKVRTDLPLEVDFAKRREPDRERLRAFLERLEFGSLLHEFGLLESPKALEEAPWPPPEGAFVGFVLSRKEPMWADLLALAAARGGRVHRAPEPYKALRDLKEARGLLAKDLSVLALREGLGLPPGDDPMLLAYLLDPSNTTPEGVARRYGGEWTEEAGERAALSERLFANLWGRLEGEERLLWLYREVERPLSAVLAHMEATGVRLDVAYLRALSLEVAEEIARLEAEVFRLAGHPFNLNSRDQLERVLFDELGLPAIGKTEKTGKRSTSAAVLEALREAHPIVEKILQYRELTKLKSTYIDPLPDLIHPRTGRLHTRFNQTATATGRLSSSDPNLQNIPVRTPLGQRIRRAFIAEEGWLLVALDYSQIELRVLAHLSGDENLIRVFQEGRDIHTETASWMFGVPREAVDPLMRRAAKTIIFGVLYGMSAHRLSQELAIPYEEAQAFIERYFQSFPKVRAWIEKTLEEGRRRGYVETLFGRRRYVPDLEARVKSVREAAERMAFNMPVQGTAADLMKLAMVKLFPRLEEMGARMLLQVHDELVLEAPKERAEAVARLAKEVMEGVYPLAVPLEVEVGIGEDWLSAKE
T4 sequence (P00582 324-928 N761I/F762Y): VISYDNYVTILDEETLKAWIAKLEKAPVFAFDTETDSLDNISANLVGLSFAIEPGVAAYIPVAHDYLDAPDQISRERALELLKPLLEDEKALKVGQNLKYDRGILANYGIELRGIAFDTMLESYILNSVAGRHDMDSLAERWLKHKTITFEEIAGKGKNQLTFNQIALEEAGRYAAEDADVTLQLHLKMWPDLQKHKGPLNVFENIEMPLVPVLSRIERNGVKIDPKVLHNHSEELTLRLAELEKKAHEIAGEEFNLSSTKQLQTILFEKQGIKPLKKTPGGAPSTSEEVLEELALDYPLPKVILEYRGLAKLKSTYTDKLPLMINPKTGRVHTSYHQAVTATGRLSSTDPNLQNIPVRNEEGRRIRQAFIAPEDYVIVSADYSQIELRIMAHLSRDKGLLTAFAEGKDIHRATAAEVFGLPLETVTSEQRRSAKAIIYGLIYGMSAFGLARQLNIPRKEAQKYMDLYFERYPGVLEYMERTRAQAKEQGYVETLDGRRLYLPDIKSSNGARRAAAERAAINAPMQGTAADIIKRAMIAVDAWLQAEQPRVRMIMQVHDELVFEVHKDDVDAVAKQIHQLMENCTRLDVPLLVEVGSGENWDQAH
T10 sequence (P19821 236-832 limits assumed): as the sequence (P19821 236-832 N666I) above, with I431N counted along it
T8 sequence (P19821 236-832 I665F/N666I/F667Y/V669F): as the sequence (P19821 236-832 N666I) above, with I430F, F432Y, V434F counted along it

Compound: Cc1cn([C@H]2CC[C@@H](COP(=O)(O)OP(=O)(O)OP(=O)(O)O)O2)c(=O)[nH]c1=O [ddTTP]
- ddNTP Discrimination [1]: Low
- ddNTP Discrimination [2]: Low
- ddNTP Discrimination [3]: High
- ddNTP Discrimination [4]: Low
- ddNTP Discrimination [5]: High
- activity at 30 µM ([6]; read-out: intensity of the bands in the presence of ddTTP relative to the absence of ddTTP): < 5%
- ddNTP Discrimination [6, 11]: Low
- intensity of the bands in the presence versus the absence of ddTTP ([7]; 30 µM ddTTP (20-fold molar excess over dTTP), 1.5 µM 4dNTPs, within a factor of two): approximately the same intensity
- ddNTP Discrimination [7, 11]: High
- ddNTP Discrimination [8]: Low
- ddNTP Discrimination [9]: High
- ddNTP Discrimination [10]: High
